In PubChem BioAssay AID1259407 (Chemical Carcinogenesis Research Information System (CCRIS), 2018):
The source made the active and inactive calls. How the calls were made is not given here.

Tested on: CCRIS mutagenicity, Ames/micronucleus/aberration tests
Experiment: CCRIS mutagenicity studies
[1] = Test System: AMES SALMONELLA TYPHIMURIUM, Strain/Indicator: TA98, Metabolic Activation: NONE, Method: PREINCUBATION
[2] = Test System: AMES SALMONELLA TYPHIMURIUM, Strain/Indicator: TA98, Metabolic Activation: NONE, Method: STANDARD PLATE
[3] = Test System: AMES SALMONELLA TYPHIMURIUM, Strain/Indicator: TA100, Metabolic Activation: NONE, Method: STANDARD PLATE
[4] = Test System: AMES SALMONELLA TYPHIMURIUM, Strain/Indicator: TA100, Metabolic Activation: NONE, Method: PREINCUBATION
[5] = Test System: AMES SALMONELLA TYPHIMURIUM, Strain/Indicator: TA1535, Metabolic Activation: NONE, Method: PREINCUBATION

O=[N+]([O-])c1ccc2c(c1)Cc1cc([N+](=O)[O-])ccc1-2
mutagenic call (Test System: AMES SALMONELLA TYPHIMURIUM, Strain/Indicator: TA98(1,8-DNP6), Metabolic Activation: NONE, Method: STANDARD PLATE): active; positive
mutagenic call (Test System: AMES SALMONELLA TYPHIMURIUM, Strain/Indicator: TA98(NR), Metabolic Activation: NONE, Method: STANDARD PLATE): active; positive
mutagenic call [1]: active; positive
mutagenic call [2]: active; positive
mutagenic call (Test System: AMES SALMONELLA TYPHIMURIUM, Strain/Indicator: TA98, Metabolic Activation: RAT, LIVER, S-9, AROCLOR 1254, Method: STANDARD PLATE): active; positive
mutagenic call (Test System: AMES SALMONELLA TYPHIMURIUM, Strain/Indicator: TA98, Metabolic Activation: RAT, LIVER, S-9, PCB (10%), Method: PREINCUBATION): active; positive
mutagenic call [3]: active; positive
mutagenic call (Test System: AMES SALMONELLA TYPHIMURIUM, Strain/Indicator: TA100, Metabolic Activation: RAT, LIVER, S-9, AROCLOR 1254, Method: STANDARD PLATE): active; positive

COc1ccc2c(c1)-c1nn(CCCN(C)C)c3ccc([N+](=O)[O-])c(c13)N2
mutagenic call (Test System: Mouse lymphoma, Strain/Indicator: L5178Y (tk+/tk-), Metabolic Activation: None, Method: Suspension/plate): active; positive
mutagenic call (Test System: Mouse lymphoma, Strain/Indicator: L5178Y (tk+/tk-), Metabolic Activation: Rat, Liver, S-9, Aroclor 1254, Method: Suspension/plate): active; positive

CC(=O)Nc1cccc(N)c1
mutagenic call (Test System: AMES SALMONELLA TYPHIMURIUM, Strain/Indicator: TA97, Metabolic Activation: HAMSTER, LIVER, S-9, AROCLOR 1254 (10%), Method: PREINCUBATION): active; positive
mutagenic call (Test System: AMES SALMONELLA TYPHIMURIUM, Strain/Indicator: TA97, Metabolic Activation: NONE, Method: PREINCUBATION): inactive; negative
mutagenic call (Test System: AMES SALMONELLA TYPHIMURIUM, Strain/Indicator: TA97, Metabolic Activation: RAT, LIVER, S-9, AROCLOR 1254 (10%), Method: PREINCUBATION): active; positive
mutagenic call (Test System: AMES SALMONELLA TYPHIMURIUM, Strain/Indicator: TA98, Metabolic Activation: HAMSTER, LIVER, S-9, AROCLOR 1254 (10%), Method: PREINCUBATION): active; positive
mutagenic call [1]: inactive; negative
mutagenic call (Test System: AMES SALMONELLA TYPHIMURIUM, Strain/Indicator: TA98, Metabolic Activation: RAT, LIVER, S-9, AROCLOR 1254 (10%), Method: PREINCUBATION): active; positive
mutagenic call (Test System: AMES SALMONELLA TYPHIMURIUM, Strain/Indicator: TA100, Metabolic Activation: HAMSTER, LIVER, S-9, AROCLOR 1254 (10%), Method: PREINCUBATION): active; positive
mutagenic call [4]: inactive; negative
mutagenic call (Test System: AMES SALMONELLA TYPHIMURIUM, Strain/Indicator: TA100, Metabolic Activation: RAT, LIVER, S-9, AROCLOR 1254 (10%), Method: PREINCUBATION): inactive; negative
mutagenic call (Test System: AMES SALMONELLA TYPHIMURIUM, Strain/Indicator: TA1535, Metabolic Activation: HAMSTER, LIVER, S-9, AROCLOR 1254 (10%), Method: PREINCUBATION): inactive; negative
mutagenic call [5]: inactive; negative
mutagenic call (Test System: AMES SALMONELLA TYPHIMURIUM, Strain/Indicator: TA1535, Metabolic Activation: RAT, LIVER, S-9, AROCLOR 1254 (10%), Method: PREINCUBATION): inactive; negative

Cc1ccc(-c2nc(-c3ccc(C)cc3C)[nH]c2-c2ccc(C)cc2)cc1
mutagenic call [2]: active; positive
mutagenic call (Test System: AMES SALMONELLA TYPHIMURIUM, Strain/Indicator: TA98, Metabolic Activation: RAT LIVER S-9, 3-METHYLCHOLANTHRENE, SODIUM PHENOBARBITAL, Method: STANDARD PLATE): active; positive
mutagenic call [3]: active; positive
mutagenic call (Test System: AMES SALMONELLA TYPHIMURIUM, Strain/Indicator: TA100, Metabolic Activation: RAT LIVER S-9, 3-METHYLCHOLANTHRENE, SODIUM PHENOBARBITAL, Method: STANDARD PLATE): active; positive

O=NN1CCOCC1
mutagenic call (End Point: IN VITRO CHROMOSOMAL ABERRATIONS, Test System: HEPG2 HEPATOMA (HUMAN), Metabolic Activation: NONE): active; positive
mutagenic call (End Point: IN VITRO CHROMOSOMAL ABERRATIONS, Test System: V79 CELLS, Metabolic Activation: NONE): active; positive
mutagenic call (End Point: IN VITRO CHROMOSOMAL ABERRATIONS, Test System: VH10 CELLS (HUMAN), Metabolic Activation: NONE): inactive; negative
mutagenic call (Test System: AMES SALMONELLA TYPHIMURIUM, Strain/Indicator: TA98, Metabolic Activation: HAMSTER, LIVER, S-9, AROCLOR 1254 (30%), Method: PREINCUBATION): inactive; negative
mutagenic call [1]: inactive; negative
mutagenic call (Test System: AMES SALMONELLA TYPHIMURIUM, Strain/Indicator: TA98, Metabolic Activation: RAT, LIVER, S-9, AROCLOR 1254 (30%), Method: PREINCUBATION): inactive; negative
mutagenic call (Test System: AMES SALMONELLA TYPHIMURIUM, Strain/Indicator: TA98, Metabolic Activation: S-9, Method: PREINCUBATION): inactive; negative
mutagenic call (Test System: AMES SALMONELLA TYPHIMURIUM, Strain/Indicator: TA100, Metabolic Activation: HAMSTER, LIVER, S-9, AROCLOR 1254 (30%), Method: PREINCUBATION): active; positive
mutagenic call [4]: inactive; negative
mutagenic call (Test System: AMES SALMONELLA TYPHIMURIUM, Strain/Indicator: TA100, Metabolic Activation: RAT, LIVER, S-9, AROCLOR 1254 (30%), Method: PREINCUBATION): active; positive
mutagenic call (Test System: AMES SALMONELLA TYPHIMURIUM, Strain/Indicator: TA100, Metabolic Activation: RAT, LIVER, S-9, AROCLOR 1254, Method: PREINCUBATION): active; positive
mutagenic call (Test System: AMES SALMONELLA TYPHIMURIUM, Strain/Indicator: TA100, Metabolic Activation: S-9, Method: PREINCUBATION): active; positive
mutagenic call (Test System: AMES SALMONELLA TYPHIMURIUM, Strain/Indicator: TA100, Metabolic Activation: TOBACCO CELLS, Method: PREINCUBATION): inactive; negative
mutagenic call (Test System: AMES SALMONELLA TYPHIMURIUM, Strain/Indicator: TA104, Metabolic Activation: RAT, LIVER, S-9, AROCLOR 1254, Method: PREINCUBATION): active; positive
mutagenic call (Test System: AMES SALMONELLA TYPHIMURIUM, Strain/Indicator: TA1530, Metabolic Activation: RAT, LIVER, S-9, Method: STANDARD PLATE): active; positive
mutagenic call [5]: inactive; negative
mutagenic call (Test System: AMES SALMONELLA TYPHIMURIUM, Strain/Indicator: TA1535, Metabolic Activation: RAT, LIVER, HEPATOCYTES, Method: PREINCUBATION): active; positive
mutagenic call (Test System: AMES SALMONELLA TYPHIMURIUM, Strain/Indicator: TA1535, Metabolic Activation: RAT, LIVER, S-9, AROCLOR 1254, Method: PREINCUBATION): active; positive
mutagenic call (Test System: AMES SALMONELLA TYPHIMURIUM, Strain/Indicator: TA1535, Metabolic Activation: RAT, LIVER, S-9, AROCLOR, Method: PREINCUBATION): active; positive
mutagenic call (Test System: AMES SALMONELLA TYPHIMURIUM, Strain/Indicator: TA1535, Metabolic Activation: RAT, LIVER, S-9, SODIUM PHENOBARBITONE, Method: PREINCUBATION): active; positive
mutagenic call (Test System: AMES SALMONELLA TYPHIMURIUM, Strain/Indicator: TA1535, Metabolic Activation: RAT, LIVER, S-9, Method: PREINCUBATION): active; positive
mutagenic call (Test System: AMES SALMONELLA TYPHIMURIUM, Strain/Indicator: TA1975, Metabolic Activation: RAT, LIVER, S-9, AROCLOR 1254, Method: PREINCUBATION): active; positive
mutagenic call (Test System: CHINESE HAMSTER V-79, Strain/Indicator: V-79/8-AZAGUANINE, Metabolic Activation: RAT, LIVER, S-15, PHENOBARBITAL, Method: STANDARD PLATE): active; positive
mutagenic call (Test System: UDS RODENT HEPATOCYTES, Strain/Indicator: THY INCORP (NON-S-PHASE), Method: AUTORADIOGRAPHY): active; positive
